The conditions of data set [1]: concentrate with 70% ethanol, 25% dimethlyacetamide, 5% polysorbate 80; mainly induced by dimethlyacetamide; WO2015013448A1; cited from earlier work.
The nature of data set [2]: Solubility of TH-302 by the saturated solution method (HPLC, external standard). Type of data set: physicochemical. The protocol:
The solubility is measured in an experiment by the saturated solution method; that is, the solid TH-302 was directly charged into the solvent until insoluble matter or turbidity appears. After clarification for a period of time, the solution was directly filtered. The clarified filtrate was taken directly for determination of the concentration of TH-302. The resulting concentration is exactly the solubility of TH-302 in this solvent system. Please refer to Tables 1, 2, and 3 for specific solubility data.
For the method for measuring the concentration of TH-302 (mg/ml), please refer to the HPLC method described in the patent WO2008083101A1 owned by Threshold Pharmaceuticals Inc. (see Example 2. An Ethanol Formulation of TH302, for details); and the external standard method was used for quantification.

Data set [3] is described as follows: Saturated solubility of the drug in D5W solution (strong shaking). It is filed as physicochemical. As to conditions: left to stand at room temperature for 24 hours. The protocol: The TH-302 sample was weighed accurately in an amount of about 60 mg, placed in a transparent vial, and added with 6 ml of dextrose 5% in water (D5W). The resulting solution was shaked vigorously for 2 minutes to obtain a solubility-stock solution. It was observed that the solubility-stock solution contained insoluble substances. Thus, the solubility-preserving solution was filtered and then became clear. […] This value was exactly the saturated solubility of the drug in D5W solution.

Here are results for 1 compound from patent US20240366640A1, “LYOPHILIZED FORMULATION SOLUTION AND LYOPHILIZED FORMULATION, AND METHOD AND USE THEREOF” (ASCENTAWITS PHARMACEUTICALS, LTD., priority 2021, published 2024).

With `Cn1c(COP(=O)(NCCBr)NCCBr)cnc1[N+](=O)[O-]` [TH-302], in data set [1], the TH-302 administration reactions entry is “lip swelling and urticaria”. For the same compound, the Solubility (usually the dissolved amount per volume that the medium holds) in data set [2] (1% Tween 80 aqueous solution (volume ratio)) stood at 7210 µg/mL; in data set [2] (95% tert-butanol/5% ethanol (volume ratio), TH-302 purchased commercially) it was 9980 µg/mL. Moreover, the “Appearance of the filtered filtrate” value in data set [3] was “still clear”.
